Tests used:
CDK1/CycB = molecular target: T1, CDK1/CycB (Homo sapiens, UniProt P06493); assay: CDK1/CycB Kinase Assay; assay type: biochemical; conditions: histone IIIS substrate, 33P-ATP, 15 minutes at 22° C.
T1 construct: GST; purchased ProQinase GmbH, Freiburg; host or cells: baculovirus-infected insect cells (Sf9)
Protocol: Recombinant CDK1- and CycB-GST-fusion proteins, purified from baculovirus-infected insect cells (Sf9), were purchased from ProQinase GmbH, Freiburg. Histone IIIS, used as a kinase substrate, is available commercially from the Sigma Company.
The reaction was stopped by adding EDTA solution (250 mmol, pH 8.0, 14 μl/measuring point).
(§1) From each reaction batch, 10 μl was applied to P30 filter strips (Wallac Company), and non-incorporated 33P-ATP was removed by subjecting the filter strips to three washing cycles for 10 minutes each in 0.5% phosphoric acid. After the filter strips were dried for one hour at 70° C., the filter strips were covered with scintillator strips (MeltiLex™ A, Wallac Company) and baked for one hour at 90° C. The amount of incorporated 33P (substrate phosphorylation) was determined by scintillation measurement in a gamma-radiation measuring device (Wallac).

[1] = test system: DU 145, hormone-independent human prostate cancer cells; assay: Proliferation assay, DU145; assay type: cell-based; conditions: DU-145, 96 h, 4 days incubation, crystal violet
Source text: (§2) Cultivated human tumor cells (MCF7, hormone-independent human breast cancer cells, related to ATCC HTB22; NCI-H460, human non-small-cell lung cancer cells, ATCC HTB-177, HCT 116, human colon cancer cells, ATCC CCL-247; DU 145, hormone-independent human prostate cancer cells, ATCC HTB-81; MaTu-MDR, hormone-independent, multiple pharmaceutical agent-resistant human breast cancer cells, EPO-GmbH, Berlin) were flattened out at a density of about 5000 cells/measuring point, depending on the growth rate of the respective cells, in a 96-well multititer plate in 200 μl of the corresponding growth medium. After 24 hours, the cells of one plate (zero-point plate) were colored with crystal violet (see below), while the medium of the other plates was replaced by fresh culture medium (200 μl), to which the test substances were added in various concentrations (0 μm, as well as in the range of 0.01-30 μm; the final concentration of the solvent dimethyl sulfoxide was 0.5%). The cells were incubated for 4 days in the presence of test substances. The cell proliferation was determined by coloring the cells with crystal violet: the cells were fixed by adding 20 μl/measuring point of an 11% glutaric aldehyde solution for 15 minutes at room temperature. After three washing cycles of the fixed cells with water, the plates were dried at room temperature. The cells were colored by adding 100 μl/measuring point of a 0.1% crystal violet solution (the pH was set at 3 by adding acetic acid). After three washing cycles of the colored cells with water, the plates were dried at room temperature. The dye was dissolved by adding 100 μl/measuring point of a 10% acetic acid solution. The extinction was determined by photometry at a wavelength of 595 nm. The change of cell growth, in percent, was calculated by normalization of the measured values to the extinction values of the zero-point plate (=0%) and the extinction of the untreated (0 μm) cells (=100%).

MaTu-ADR = assay: Proliferation assay, MaTu-ADR; assay type: cell-based; conditions: Homo sapiens, 96 h, MaTu-ADR cells, 4 days incubation, crystal violet
Source text: as §2

CDK2/CycE = molecular target: T2, CDK2/CycE (Homo sapiens, UniProt P24941); assay: CDK2/CycE Kinase Assay; assay type: biochemical; conditions: histone IIIS substrate, 33P-ATP, 15 minutes at 22° C.
T2 construct: GST; purchased ProQinase GmbH, Freiburg; host or cells: baculovirus-infected insect cells (Sf9)
Protocol: Recombinant CDK2- and CycE-GST-fusion proteins, purified from baculovirus-infected insect cells (Sf9), were purchased by ProQinase GmbH, Freiburg. Histone IIIs, which was used as a kinase substrate, was purchased by the Sigma Company.
CDK2/CycE (50 ng/measuring point) was incubated for 15 minutes at 22° C. in the presence of various concentrations of test substances (0 μm, as well as within the range of 0.01-100 μm) in assay buffer [50 mmol of tris/HCl, pH 8.0, 10 mmol of MgCl2, 0.1 mmol of Na ortho-vanadate, 1.0 mmol of dithiothreitol, 0.5 μm of adenosine triphosphate (ATP), 10 μg/measuring point of histone IIIS, 0.2 μCi/measuring point of ^33P-gamma ATP, 0.05% NP40, 12.5% dimethyl sulfoxide]. The reaction was stopped by adding EDTA solution (250 mmol, pH 8.0, 14 μl/measuring point).
as §1, with “^33P-ATP” for “33P-ATP”, “^33P” for “33P”

[2] = molecular target: T3, VEGF receptor tyrosine kinase-2 (Homo sapiens, UniProt P35968); assay: VEGF Receptor-2 Kinase Assay; assay type: biochemical; conditions: poly-(Glu4Tyr) substrate, 33P-ATP, 10 minutes at 22° C.; read-out: VEGF-R2 IC50
T3 construct: GST; made in house; host or cells: baculovirus-infected insect cells (Sf9)
T3 sequence (P35968 20-1356): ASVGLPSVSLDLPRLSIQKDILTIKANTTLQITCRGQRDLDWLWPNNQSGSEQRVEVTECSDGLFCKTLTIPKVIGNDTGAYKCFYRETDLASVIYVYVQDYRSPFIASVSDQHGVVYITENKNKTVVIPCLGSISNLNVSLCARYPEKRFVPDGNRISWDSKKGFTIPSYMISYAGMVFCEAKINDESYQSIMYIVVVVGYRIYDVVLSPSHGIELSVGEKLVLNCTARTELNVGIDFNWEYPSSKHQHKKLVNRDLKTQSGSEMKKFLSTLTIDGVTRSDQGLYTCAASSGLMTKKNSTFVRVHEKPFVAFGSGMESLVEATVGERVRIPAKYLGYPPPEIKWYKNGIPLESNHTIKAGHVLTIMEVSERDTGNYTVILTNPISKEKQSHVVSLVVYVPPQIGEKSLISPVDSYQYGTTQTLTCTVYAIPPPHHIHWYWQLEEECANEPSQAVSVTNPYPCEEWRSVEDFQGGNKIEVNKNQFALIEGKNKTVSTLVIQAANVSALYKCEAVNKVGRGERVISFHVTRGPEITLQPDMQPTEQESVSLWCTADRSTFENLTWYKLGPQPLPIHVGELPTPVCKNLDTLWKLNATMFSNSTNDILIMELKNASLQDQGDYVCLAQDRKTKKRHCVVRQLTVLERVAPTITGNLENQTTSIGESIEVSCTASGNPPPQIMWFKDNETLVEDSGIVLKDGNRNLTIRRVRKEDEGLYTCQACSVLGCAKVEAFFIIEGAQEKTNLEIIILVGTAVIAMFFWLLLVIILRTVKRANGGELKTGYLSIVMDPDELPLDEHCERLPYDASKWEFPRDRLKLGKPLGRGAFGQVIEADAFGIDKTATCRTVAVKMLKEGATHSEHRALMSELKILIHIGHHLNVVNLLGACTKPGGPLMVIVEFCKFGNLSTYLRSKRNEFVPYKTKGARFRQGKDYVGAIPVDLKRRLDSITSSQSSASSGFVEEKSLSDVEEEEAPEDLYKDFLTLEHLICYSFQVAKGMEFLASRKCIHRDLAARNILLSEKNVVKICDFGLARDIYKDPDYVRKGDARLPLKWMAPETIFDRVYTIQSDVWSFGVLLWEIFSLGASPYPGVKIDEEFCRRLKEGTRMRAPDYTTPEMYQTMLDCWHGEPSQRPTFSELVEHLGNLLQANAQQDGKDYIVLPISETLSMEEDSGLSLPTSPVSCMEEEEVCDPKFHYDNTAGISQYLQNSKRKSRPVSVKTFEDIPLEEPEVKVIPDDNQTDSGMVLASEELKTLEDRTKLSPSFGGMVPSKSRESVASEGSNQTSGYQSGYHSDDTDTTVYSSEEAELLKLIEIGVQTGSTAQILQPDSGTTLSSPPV
Protocol: VEGF Receptor-2 Kinase Assay
Recombinant VEGF receptor tyrosine kinase-2 was purified as a GST fusion protein from baculovirus-infected insect cells (Sf9). Poly-(Glu4Tyr), which was used as a kinase substrate, was purchased by the Sigma Company.
VEGF receptor tyrosine kinase (90 ng/measuring point) was incubated for 10 minutes at 22° C. in the presence of various concentrations of test substances (0 μm, as well as within the range of 0.001-30 μm) in 30 μl of assay buffer [40 mmol of Tris/HCl, […], 10 mmol of MgCl2, 1 mmol of MnCl2, 3 μmol of Na ortho-vanadate, 1.0 mmol of dithiothreitol, 8 μmol of adenosine trisphosphate (ATP), 27 μg/measuring point of poly-(Glu4Tyr), 0.2 μCi/measuring point of 33P-gamma ATP, 1% dimethyl sulfoxide]. The reaction was stopped by adding EDTA solution (250 mmol, pH 7.0, 10 μl/measuring point).
as §1

[3] = test system: NCI-H460, human non-small-cell lung cancer cells; assay: Proliferation assay, H460; assay type: cell-based; conditions: NCI-H460, 96 h, 4 days incubation, crystal violet
Source text: as §2

[4] = test system: MCF7, hormone-independent human breast cancer cells; assay: Proliferation assay, MCF7; assay type: cell-based; conditions: MCF7, 96 h, 4 days incubation, crystal violet
Source text: as §2

T1 sequence (P06493 whole entry): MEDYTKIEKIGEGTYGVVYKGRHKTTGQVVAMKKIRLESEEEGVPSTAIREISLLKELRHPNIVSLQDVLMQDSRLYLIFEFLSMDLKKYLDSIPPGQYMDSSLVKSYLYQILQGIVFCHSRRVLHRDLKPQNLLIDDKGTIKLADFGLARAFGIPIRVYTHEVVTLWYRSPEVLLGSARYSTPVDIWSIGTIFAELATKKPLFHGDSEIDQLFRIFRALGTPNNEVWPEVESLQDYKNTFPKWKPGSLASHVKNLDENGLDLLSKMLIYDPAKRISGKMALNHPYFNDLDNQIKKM
T1 sequence (P14635 whole entry partner): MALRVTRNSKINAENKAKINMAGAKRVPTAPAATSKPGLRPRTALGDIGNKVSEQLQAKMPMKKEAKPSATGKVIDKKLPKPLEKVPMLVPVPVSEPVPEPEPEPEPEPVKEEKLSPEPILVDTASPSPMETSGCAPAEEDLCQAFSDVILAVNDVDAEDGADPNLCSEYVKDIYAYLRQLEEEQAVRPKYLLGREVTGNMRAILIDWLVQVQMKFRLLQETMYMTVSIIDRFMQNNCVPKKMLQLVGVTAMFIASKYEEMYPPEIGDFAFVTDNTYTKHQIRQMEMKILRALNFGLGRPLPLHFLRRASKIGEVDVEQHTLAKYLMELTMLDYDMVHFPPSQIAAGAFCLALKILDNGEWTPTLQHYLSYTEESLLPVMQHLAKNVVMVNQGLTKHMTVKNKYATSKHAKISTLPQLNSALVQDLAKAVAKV

C[C@@H](Nc1nc(Nc2ccc(S(=N)(=O)CC3CC3)cc2)ncc1Br)C(C)(C)O (mixture of isomers) [Example 1.9, (RS)-S-[4-({5-bromo-4-[(R)-(2-hydroxy-1,2-dimethylpropyl)amino]pyrimidin-2-yl}amino)phenyl]-S-(cyclopropylmethyl)sulfoximide]
IC50 (CDK1/CycB): 5 nM
IC50 [1]: 100 nM
IC50 (MaTu-ADR): 100 nM
IC50 (CDK2/CycE): 4 nM
IC50 [2]: 49 nM
IC50 [3]: 110 nM
IC50 [4]: 100 nM

C[C@@H](Nc1nc(Nc2ccc(S(=O)(=NS(=O)(=O)CC[Si](C)(C)C)C3CCCC3)cc2)ncc1Br)C(C)(C)O (mixture of isomers) [Example 1.10, (RS)-S-[4-({5-bromo-4-[(R)-(2-hydroxy-1,2-dimethylpropyl)amino]pyrimidin-2-yl}amino)phenyl]-S-cyclopentyl-N-[2-(trimethylsilyl)ethylsulfonyl]sulfoximide]
IC50 (CDK1/CycB): > 1000 nM
IC50 [1]: 800 nM
IC50 (MaTu-ADR): 800 nM
IC50 (CDK2/CycE): > 1000 nM
IC50 [2]: 910 nM
IC50 [3]: 700 nM
IC50 [4]: 500 nM

C[C@@H](Nc1nc(Nc2ccc(S(=O)(CCO)=NS(=O)(=O)CC[Si](C)(C)C)cc2)ncc1Br)C(C)(C)O (mixture of isomers) [Example 1.12, (RS)-S-[4-({5-bromo-4-[(R)-(2-hydroxy-1,2-dimethylpropyl)amino]pyrimidin-2-yl}amino)phenyl]-S-(2-hydroxyethyl)-N-[2-(trimethylsilyl)ethylsulfonyl]sulfoximide]
IC50 (CDK1/CycB): 160 nM
IC50 [1]: 300 nM
IC50 (MaTu-ADR): 2800 nM
IC50 (CDK2/CycE): 49 nM
IC50 [2]: 160 nM
IC50 [3]: 400 nM
IC50 [4]: 200 nM

C[C@@H](O)[C@@H](C)Nc1nc(Nc2ccc(S(=O)(CCO)=NS(=O)(=O)CC[Si](C)(C)C)cc2)ncc1Br (mixture of isomers) [Example 1.16, (RS)-S-[4-({5-Bromo-4-[(1R,2R)-(2-hydroxy-1-methyl-propyl)amino]pyrimidin-2-yl}amino)phenyl]-S-(2-hydroxyethyl)-N-[2-(trimethylsilyl)ethylsulfonyl]sulfoximide]
IC50 (CDK1/CycB): 170 nM
IC50 [1]: 190 nM
IC50 (MaTu-ADR): 4000 nM
IC50 (CDK2/CycE): 130 nM
IC50 [2]: 130 nM
IC50 [3]: 200 nM
IC50 [4]: 180 nM

C[C@@H](O)[C@@H](C)Oc1nc(Nc2ccc(S(=O)(CCO)=NS(=O)(=O)CC[Si](C)(C)C)cc2)ncc1Br (mixture of isomers) [Example 1.20, (RS)-S-[4-({5-bromo-4-[(1R,2R)-2-hydroxy-1-methyl-propoxy]pyrimidin-2-yl}amino)phenyl]-S-(2-hydroxyethyl)-N-[2-(trimethylsilyl)ethylsulfonyl]sulfoximide]
IC50 (CDK1/CycB): 160 nM
IC50 [1]: 400 nM
IC50 (MaTu-ADR): 2100 nM
IC50 (CDK2/CycE): 54 nM
IC50 [2]: 820 nM
IC50 [3]: 400 nM
IC50 [4]: 200 nM

COc1cc(Nc2ncc(Br)c(N[C@H](C)C(C)(C)O)n2)ccc1S(C)(=N)=O (mixture of isomers) [Example 1.23, (RS)-S-[4-({5-bromo-4-[(R)-(2-hydroxy-1,2-dimethylpropyl)amino]pyrimidin-2-yl}amino)-2-methoxyphenyl]-S-methyl sulfoximide]
IC50 [1]: 100 nM
IC50 (MaTu-ADR): < 100 nM
IC50 (CDK2/CycE): 6 nM
IC50 [2]: 75 nM
IC50 [3]: < 100 nM
IC50 [4]: 130 nM

CCOC(=O)N=S(C)(=O)c1ccc(Nc2ncc(Br)c(N[C@H](C)C(C)(C)O)n2)cc1 (mixture of isomers) [Example 1.31, (RS)-S-[4-({5-bromo-4-[(R)-(2-hydroxy-1,2-dimethylpropyl)amino]pyrimidin-2-yl}amino)phenyl]-N-(ethoxycarbonyl)-S-methyl sulfoximide]
IC50 (CDK1/CycB): 27 nM
IC50 [1]: 300 nM
IC50 (MaTu-ADR): 700 nM
IC50 (CDK2/CycE): 9 nM
IC50 [2]: 140 nM
IC50 [3]: 180 nM
IC50 [4]: 200 nM

CCOC(=O)N=S(C)(=O)c1ccc(Nc2ncc(Br)c(N[C@H](C)[C@@H](C)O)n2)cc1 (mixture of isomers) [Example 1.32, (RS)-S-[4-({5-bromo-4-[(1R,2R)-(2-hydroxy-1-methylpropyl)amino]pyrimidin-2-yl}amino)phenyl]-N-(ethoxycarbonyl)-S-methyl sulfoximide]
IC50 (CDK1/CycB): 16 nM
IC50 [1]: 300 nM
IC50 (MaTu-ADR): 600 nM
IC50 (CDK2/CycE): 12 nM
IC50 [2]: 56 nM
IC50 [3]: 180 nM
IC50 [4]: 190 nM

CCOC(=O)N=S(=O)(CC)c1ccc(Nc2ncc(Br)c(N[C@H](C)C(C)(C)O)n2)cc1 (mixture of isomers) [Example 1.35, (RS)-S-[4-({5-bromo-4-[(R)-(2-hydroxy-1,2-dimethylpropyl)amino]pyrimidin-2-yl}amino)phenyl]-N-(ethoxycarbonyl)-S-ethyl sulfoximide]
IC50 (CDK1/CycB): 96 nM
IC50 [1]: 120 nM
IC50 (MaTu-ADR): 300 nM
IC50 (CDK2/CycE): 42 nM
IC50 [2]: 94 nM
IC50 [3]: 120 nM
IC50 [4]: 110 nM

CCOC(=O)N=S(=O)(CC)c1ccc(Nc2ncc(Br)c(N[C@H](C)[C@@H](C)O)n2)cc1 (mixture of isomers) [Example 1.36, (RS)-S-[4-({5-bromo-4-[(1R,2R)-(2-hydroxy-1-methylpropyl)amino]pyrimidin-2-yl}amino)phenyl]-N-(ethoxycarbonyl)-S-ethyl sulfoximide]
IC50 (CDK1/CycB): 43 nM
IC50 [1]: 170 nM
IC50 (MaTu-ADR): 1200 nM
IC50 (CDK2/CycE): 11 nM
IC50 [2]: 92 nM
IC50 [3]: 120 nM
IC50 [4]: 140 nM

CCC(Sc1nc(Nc2ccc(S(C)(=N)=O)cc2)ncc1Br)C(C)O (racemic) [Example 3.6, (RS)-S-[4-({5-bromo-4-[(RS,RS)-(1-ethyl-2-hydroxypropyl)sulfanyl]pyrimidin-2-yl}amino)phenyl]-S-methyl sulfoximide]
IC50 (CDK1/CycB): 22 nM
IC50 [1]: 20 nM
IC50 (MaTu-ADR): 20 nM
IC50 (CDK2/CycE): 18 nM
IC50 [3]: 20 nM
IC50 [4]: 80 nM
